Experimental findings from publication PMC5471521, “Novel selective β1-adrenoceptor antagonists for concomitant cardiovascular and respiratory disease” (The FASEB Journal, 2017) are described below.

The target in this series is T1, CYP2A6 (Homo sapiens, UniProt P11509).
T1 construct: purchased BD Biosciences
The experiment in a line: P450 in vitro clearance, recombinant Supersomes. The class given is in vitro ADME. The conditions noted are these: 2 μM, hydrochloride salts used. As to the method:
NDD-713.HCl and -825.HCl (2 μM) and cytochrome P450 (P450) reference substrates (see Supplemental Data for full details) were incubated (37°C) with selected recombinant human P450 isoforms (CYP1A2, CYP2A6, CYP2B6, CYP2C8, CYP2C9, CYP2C19, CYP2D6 CYP2E1, and CYP3A4) in heterologously expressed P450 Supersomes (BD Biosciences) that were suspended in […] Tris-HCl buffer (pH 7.4; for CYP2C9) or 100 mM phosphate buffer (pH 7.4; for the other isoforms) at final P450 concentrations of 85 pmol/ml. Reactions were initiated by additions of an NADPH-regenerating system and quenched at time points over 60 min (reference probes) or 120 min (test compounds) by acetonitrile. Quenched samples were centrifuged and supernatants were collected. NDD-713, -825, and probe metabolites were determined by UPLC-MS relative to calibration standards prepared in quenched matrix, and %substrate that remained was calculated relative to the initial sample concentration. The %substrate that remained vs. time was fitted to exponential decay functions to determine the pseudo first-order rate constant (k/min) for substrate depletion. These were normalized to P450 concentrations (pmol/ml) to obtain in vitro CLint values: CLint, in vitro (μl/min/pmol P450) = [k (min^−1)/P450 concentration […]] × 1000. Studies were carried out by CDCO.

T1 sequence (P11509 whole entry): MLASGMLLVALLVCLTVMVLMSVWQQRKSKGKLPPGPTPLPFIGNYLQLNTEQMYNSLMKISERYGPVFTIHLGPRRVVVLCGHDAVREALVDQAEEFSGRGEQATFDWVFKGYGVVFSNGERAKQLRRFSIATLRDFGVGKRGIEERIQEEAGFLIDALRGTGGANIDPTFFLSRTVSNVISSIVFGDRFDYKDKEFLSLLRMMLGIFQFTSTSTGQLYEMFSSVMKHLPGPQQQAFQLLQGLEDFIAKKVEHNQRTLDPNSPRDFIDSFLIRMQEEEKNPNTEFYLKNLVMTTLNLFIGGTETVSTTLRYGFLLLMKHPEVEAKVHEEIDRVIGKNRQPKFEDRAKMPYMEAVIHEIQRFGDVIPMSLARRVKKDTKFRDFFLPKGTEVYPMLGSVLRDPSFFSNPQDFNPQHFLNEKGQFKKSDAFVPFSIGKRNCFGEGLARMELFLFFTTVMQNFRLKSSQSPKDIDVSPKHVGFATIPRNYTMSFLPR

With `NC(=O)c1ccc(OCCNC[C@H](O)COc2ccc3c(c2)OC[C@@H](COCC2CC2)O3)cc1` [NDD-713], the “P450 in vitro clearance CLint, CYP2A6” value stood at 0.02 μl/min/pmol P450.
